pKi: −log10 of the molar value.
Experiments:
[1] = biological target: T1, Nitric oxide synthase, inducible (Mus musculus, UniProt P29477); test: Inhibition of mouse recombinant iNOS overexpressed in Escherichia coli using L-arginine as substrate assessed as formation of NO-hemoglobin complex measured up to 180 seconds by hemoglobin capture assay
T1 sequence (P29477 whole entry): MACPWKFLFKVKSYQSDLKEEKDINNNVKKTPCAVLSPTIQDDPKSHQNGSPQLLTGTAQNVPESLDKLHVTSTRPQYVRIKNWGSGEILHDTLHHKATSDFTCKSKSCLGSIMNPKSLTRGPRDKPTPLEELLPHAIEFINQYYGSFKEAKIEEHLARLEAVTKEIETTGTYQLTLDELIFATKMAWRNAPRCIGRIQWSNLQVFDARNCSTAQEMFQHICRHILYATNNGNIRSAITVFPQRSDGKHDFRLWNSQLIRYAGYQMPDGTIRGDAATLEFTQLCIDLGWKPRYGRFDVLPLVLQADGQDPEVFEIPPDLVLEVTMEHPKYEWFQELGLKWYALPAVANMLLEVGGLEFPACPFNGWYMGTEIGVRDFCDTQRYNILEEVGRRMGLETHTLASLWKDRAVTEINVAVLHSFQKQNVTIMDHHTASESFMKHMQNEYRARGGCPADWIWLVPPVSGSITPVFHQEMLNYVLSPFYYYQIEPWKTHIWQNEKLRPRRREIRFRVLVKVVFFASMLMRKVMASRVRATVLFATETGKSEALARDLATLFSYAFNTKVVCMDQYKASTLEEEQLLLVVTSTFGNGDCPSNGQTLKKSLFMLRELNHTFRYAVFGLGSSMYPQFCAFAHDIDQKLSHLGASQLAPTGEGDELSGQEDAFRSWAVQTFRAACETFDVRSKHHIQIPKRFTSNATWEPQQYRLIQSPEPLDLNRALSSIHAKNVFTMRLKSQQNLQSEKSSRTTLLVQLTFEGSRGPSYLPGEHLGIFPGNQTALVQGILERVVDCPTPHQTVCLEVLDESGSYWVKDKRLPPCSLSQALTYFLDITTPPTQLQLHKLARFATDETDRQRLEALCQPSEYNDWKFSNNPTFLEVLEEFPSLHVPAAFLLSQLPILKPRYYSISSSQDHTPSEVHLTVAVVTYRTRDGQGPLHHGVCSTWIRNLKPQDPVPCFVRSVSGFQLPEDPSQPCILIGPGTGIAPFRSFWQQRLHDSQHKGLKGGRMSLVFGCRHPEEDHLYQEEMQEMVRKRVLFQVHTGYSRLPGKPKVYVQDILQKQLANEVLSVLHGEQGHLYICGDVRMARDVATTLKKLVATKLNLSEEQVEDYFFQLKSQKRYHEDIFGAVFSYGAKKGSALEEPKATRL

Nitric oxide synthase 3 = biological target: T2, Nitric oxide synthase 3 (Bos taurus, UniProt P29473); test: Inhibition of bovine recombinant eNOS overexpressed in Escherichia coli using L-arginine as substrate assessed as formation of NO-hemoglobin complex measured up to 180 seconds by hemoglobin capture assay
T2 sequence (P29473 whole entry): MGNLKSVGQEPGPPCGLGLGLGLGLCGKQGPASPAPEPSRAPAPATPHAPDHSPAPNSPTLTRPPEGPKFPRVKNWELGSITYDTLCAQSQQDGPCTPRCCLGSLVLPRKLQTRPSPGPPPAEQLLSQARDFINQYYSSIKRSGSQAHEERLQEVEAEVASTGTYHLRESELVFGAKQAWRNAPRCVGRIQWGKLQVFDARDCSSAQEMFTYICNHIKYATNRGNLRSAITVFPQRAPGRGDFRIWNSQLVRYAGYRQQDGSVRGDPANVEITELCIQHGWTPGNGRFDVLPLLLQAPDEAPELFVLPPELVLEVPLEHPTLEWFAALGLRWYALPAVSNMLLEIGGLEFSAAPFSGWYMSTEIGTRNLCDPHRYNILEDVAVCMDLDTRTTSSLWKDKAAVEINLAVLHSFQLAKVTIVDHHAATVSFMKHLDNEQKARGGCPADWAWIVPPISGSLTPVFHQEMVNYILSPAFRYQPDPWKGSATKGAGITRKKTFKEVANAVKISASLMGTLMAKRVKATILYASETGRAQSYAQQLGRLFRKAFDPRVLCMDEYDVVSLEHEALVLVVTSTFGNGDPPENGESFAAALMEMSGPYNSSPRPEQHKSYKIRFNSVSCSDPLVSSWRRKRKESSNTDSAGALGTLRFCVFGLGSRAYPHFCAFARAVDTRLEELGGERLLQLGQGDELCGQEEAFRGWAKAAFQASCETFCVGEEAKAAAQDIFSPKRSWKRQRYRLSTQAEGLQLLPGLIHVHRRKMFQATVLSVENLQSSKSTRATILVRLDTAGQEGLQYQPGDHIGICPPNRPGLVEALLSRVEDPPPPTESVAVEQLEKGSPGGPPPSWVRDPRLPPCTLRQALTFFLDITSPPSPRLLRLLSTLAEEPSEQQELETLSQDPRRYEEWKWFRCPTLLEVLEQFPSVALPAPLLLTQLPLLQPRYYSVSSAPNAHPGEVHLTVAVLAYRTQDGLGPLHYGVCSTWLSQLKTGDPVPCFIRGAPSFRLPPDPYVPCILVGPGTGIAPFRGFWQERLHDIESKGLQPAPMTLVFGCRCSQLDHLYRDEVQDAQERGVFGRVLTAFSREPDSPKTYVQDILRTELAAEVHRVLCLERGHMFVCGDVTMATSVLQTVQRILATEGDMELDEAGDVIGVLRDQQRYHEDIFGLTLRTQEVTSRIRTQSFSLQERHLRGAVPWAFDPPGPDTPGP

Nitric oxide synthase 1 = Nitric oxide synthase 1 (Rattus norvegicus, UniProt P29476); test: Inhibition of rat recombinant nNOS overexpressed in Escherichia coli using L-arginine as substrate assessed as formation of NO-hemoglobin complex measured up to 180 seconds by hemoglobin capture assay
Nitric oxide synthase 1, sequence (P29476 whole entry): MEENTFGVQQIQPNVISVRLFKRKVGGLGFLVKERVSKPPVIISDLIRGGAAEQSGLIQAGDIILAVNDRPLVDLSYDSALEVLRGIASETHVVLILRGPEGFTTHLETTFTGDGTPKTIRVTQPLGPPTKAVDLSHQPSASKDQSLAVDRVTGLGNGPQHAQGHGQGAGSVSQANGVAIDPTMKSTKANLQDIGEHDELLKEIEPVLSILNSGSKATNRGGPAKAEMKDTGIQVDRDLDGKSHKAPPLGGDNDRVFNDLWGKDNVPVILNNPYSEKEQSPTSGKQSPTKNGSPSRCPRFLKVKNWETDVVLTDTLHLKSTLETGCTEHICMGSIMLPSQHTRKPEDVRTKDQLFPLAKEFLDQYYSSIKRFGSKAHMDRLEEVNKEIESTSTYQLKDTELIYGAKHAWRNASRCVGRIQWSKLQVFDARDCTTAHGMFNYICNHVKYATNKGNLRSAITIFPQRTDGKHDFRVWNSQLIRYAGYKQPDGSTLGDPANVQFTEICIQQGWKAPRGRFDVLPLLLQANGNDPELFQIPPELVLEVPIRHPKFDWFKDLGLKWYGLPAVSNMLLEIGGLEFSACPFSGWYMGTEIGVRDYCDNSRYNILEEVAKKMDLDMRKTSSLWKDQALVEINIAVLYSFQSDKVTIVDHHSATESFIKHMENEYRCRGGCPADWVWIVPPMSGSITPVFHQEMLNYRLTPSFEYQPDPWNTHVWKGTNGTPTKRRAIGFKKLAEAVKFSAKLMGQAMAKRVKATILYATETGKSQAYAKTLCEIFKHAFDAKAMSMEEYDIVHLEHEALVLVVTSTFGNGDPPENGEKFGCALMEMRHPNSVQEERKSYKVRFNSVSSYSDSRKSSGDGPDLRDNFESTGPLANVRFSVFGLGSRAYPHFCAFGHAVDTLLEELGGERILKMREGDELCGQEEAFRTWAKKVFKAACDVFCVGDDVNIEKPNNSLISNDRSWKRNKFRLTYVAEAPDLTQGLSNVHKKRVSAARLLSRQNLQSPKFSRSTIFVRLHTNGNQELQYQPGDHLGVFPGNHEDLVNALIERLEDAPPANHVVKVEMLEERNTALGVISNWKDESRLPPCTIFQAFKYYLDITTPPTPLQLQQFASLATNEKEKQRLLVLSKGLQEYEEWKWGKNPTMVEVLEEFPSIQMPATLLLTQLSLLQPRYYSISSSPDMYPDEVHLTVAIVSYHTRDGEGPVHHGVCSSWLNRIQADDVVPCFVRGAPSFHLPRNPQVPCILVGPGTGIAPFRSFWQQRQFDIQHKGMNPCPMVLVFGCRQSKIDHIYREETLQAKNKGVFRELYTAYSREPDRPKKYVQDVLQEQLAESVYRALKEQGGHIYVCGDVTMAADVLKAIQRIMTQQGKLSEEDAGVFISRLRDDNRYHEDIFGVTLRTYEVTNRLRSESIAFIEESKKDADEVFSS

`Cc1cc(N)nc(COC[C@H]2C[C@H](OCc3cc(C)cc(N)n3)CN2)c1` showed a pKi [1] of 5.54, a pKi (Nitric oxide synthase 3) of 5.17 and a pKi (Nitric oxide synthase 1) of 8.01.
